Measured values reported in US20050051179A1, “Simple apparatus for preparing experimental models of brain neuronal damage and preparation of secondary brain damage model with methods for evaluation of drug efficacy of novel compounds against brain damage and memory-related events” (priority 2003, published 2005).

Columns and labels:
[1] = tested on: pyramidal cells of hippocampal CA3 field; test: Viable pyramidal cell counts per unit area, hippocampal CA3 field, after drop-weight impact; assay type: in vivo, rat; conditions: rats, 3 mg/kg i.p. before impact
Description: (§1) Male Fisher rats weighing 400-450 g were anesthetized with sodium pentobarbital (Nembutal; Dainippon Pharmaceutical Co., Ltd., Osaka) by i.p. administration (40 mg/kg) before the head was restrained in a stereotaxic apparatus. Weight 20 of 5-gram mass positioned at a drop-distance of 10 cm was dropped onto the brain surface under gravitational force to generate an impact of 50 cm·g, causing a head injury. Follow-up studies of the progress of subsequent events from 1 to 48 hours post-impact were monitored with the MRI approach.
Immediately after impact, MRI diagnoses were conducted to categorize animals as (i) no injuries, (ii) no subarachinoid hemorrhage and (iii) external wounds and hemorrhages inflicted on brain surface, etc. Animals having such criteria were omitted from subsequent studies. […]
Along with MRI findings from 1 to 48 hours post-impact, brain injuries were also evaluated histopathologically using the cardioperfusion method with 200 mL of physiological saline (0.9 w/w %) to first remove blood cells followed by fixation with 50 mL of 0.1 MPBS (pH: 7.4) containing 4% paraformaldehyde (PFA). […]
With regard to the therapeutic effects of chemical agents tested, viable pyramidal cell counts per unit area (1 mm^2) of tissues in hippocampal CA1 and CA3 fields were determined to derive the area of tissue damage/injury using image-analysis software (NIH Co., Ltd.; Image Ver. 1.55). […]

[2] = tested on: pyramidal cells of hippocampal CA1 field; test: Viable pyramidal cell counts per unit area, hippocampal CA1 field, after drop-weight impact; assay type: in vivo, rat; conditions: rats, 3 mg/kg i.p. before impact
Description: as §1
(§2) Immediately after impact, MRI diagnoses were conducted to categorize animals as (i) no injuries, (ii) no subarachinoid hemorrhage and (iii) external wounds and hemorrhages inflicted on brain surface, etc. Animals having such criteria were omitted from subsequent studies. Animals with confirmed cerebral injuries but without these criteria were divided into groups of six each.
Along with MRI findings from 1 to 48 hours post-impact, brain injuries were also evaluated histopathologically using the cardioperfusion method with 200 mL of physiological saline (0.9 w/w %) to first remove blood cells followed by fixation with 50 mL of 0.1 MPBS (pH: 7.4) containing 4% paraformaldehyde (PFA). Brain tissues were then embedded in paraffin and coronal sections of the brain specimens were sectioned before staining with the hematoxylin-eosin (H&E) reagent.
With regard to the therapeutic effects of chemical agents tested, viable pyramidal cell counts per unit area (1 mm^2) of tissues in hippocampal CA1 and CA3 fields were determined to derive the area of tissue damage/injury using image-analysis software (NIH Co., Ltd.; Image Ver. 1.55). As for the extent of tissue damage, slices with the maximum damage area between two groups were compared.

[3] = tested on: SBD derived from experimental head injury; test: MRI diagnosis of cerebral injuries after drop-weight impact (SBD model); assay type: in vivo, rat; conditions: rats, 3 mg/kg i.p. before impact of 50 cm·g; 1 hr post-impact
Description: as §1, §2

[4] = tested on: SBD generated with the drop weight apparatus; test: MRI findings and cerebral blood flow (CBF) velocity after drop-weight impact (240 cm·g); assay type: in vivo, dog; conditions: dogs
Text: (§3) Eight healthy 4-year-old male Beagle dogs were anesthetized before a square piece of skull (1.2×1.2 cm^2) was craniectomized. As two different cerebral injuries were involved in the study, a unilateral parietal bone was drilled and the brain surface surgically exposed without removing the dura mater. In two randomized dogs, a self-designed 5-mm spherical DCN with reproducibility was applied to generate concussion (CC in Table 1). In the remaining four dogs, the WD method was employed under the following experimental conditions: a weight of 12-g mass with a drop-distance of 20 cm to generate an impact of 240 cm·g.
(§4) MRI findings were performed with superconductor magnetism of magnetic field intensity 0.5T (Flexart MRT-50GP; Toshiba Medical Co., Ltd.). CBF velocities of DCN (n=2) and drop-weight-inflicted (n=4) dogs (including craniectomized skull-replaced dogs) were measured via MRI using the 3D-phase shift magnetic resonance angiography with presaturation pulse (PAMRA: TE=25, TR=10). Craniectomized skull-chips were replaced and kept in position with adhesive.

[5] = tested on: direct contusion nest (DCN) injury; test: MRI findings and cerebral blood flow (CBF) velocity after direct contusion nest (DCN); assay type: in vivo, dog
Text: as §3, §4

C[C@]12N[C@H](Cc3ccccc31)c1ccccc12 [MK-801]
viable pyramidal cell counts per unit area, CA3 field, decrease (rate) ([1]; 1 hr post-impact, non-treated 45.9%): 63.0%
viable pyramidal cell counts per unit area, CA3 field, decrease (rate) ([1]; 48 hr post-impact, non-treated 37.6%): 61.2%
suppression of SBD exacerbation (viable cell counts 48 hr vs 1 hr post-impact) [2]: could not completely suppress SBD exacerbation
viable pyramidal cell counts per unit area, CA1 field, decrease compared with the control group ([2]; 1 hr post-impact, non-treated 59.2%): 66.4%
viable pyramidal cell counts per unit area, CA1 field, decrease compared with the control group ([2]; 48 hr post-impact, non-treated 44.5%): 54.8%
T2-weighted high-signal and T1-weighted low-signal areas (MRI) [3]: expanded
time-related expansion of damage after impact (MRI) ([4]; drop weight group with drug pretreatment, 240 cm·g): not established
SBD development (CBF peak at 3 hr after impact) ([4]; drop-weight-inflicted, drug-pretreated group): effectively suppressed SBD development
CBF after the high values registered immediately after impact ([5]; dogs subjected to DCN, drug-treated group (same as non-treated)): no subsequent changes thereafter
damage field with time (MRI) ([5]; dogs, DCN group with drug pretreatment): damage area had expanded
